# Paper PMC7937321 (Genes and Environment, 2021)
# What was measured:
# [1] = test system: human lymphoblastoid TK6 cells, thymidine kinase gene; assay: TK gene mutation assay (TK6 assay, OECD TG490); conditions: for MF: graph sheet, TK6, 24 h
# TK6 cells = assay: Cytotoxicity in the TK6 assay (CE, RS, RSG, RTG); conditions: for RS: graph sheet, TK6, 24 h
# Experimental: Briefly, test substances were dissolved in an appropriate solvent (DMSO or ethanol) and then serially diluted to prepare final concentrations. […] The 4 h and 24 h treatments were conducted by shaking and static exposures, respectively. After treatment with test substances, cells were centrifuged (1000 rpm, 5 min), supernatants were removed, and cells were washed with a serum-free medium or Hank’s Balanced Salt Solution. After centrifugation (1000 rpm, 5 min) to remove the supernatant, cells (2 × 10^7 cells) were dispersed in an RPMI medium containing 10% serum, and cell concentration was measured. Treated cells were cultured at 37 °C with 5% CO2 condition and used for TK6 assays. At that time, to calculate the cloning efficiency (CE) (Eq. 1), the cells were cultured in a 96-well microplate at a concentration of about 1.6 cells/well for 2 weeks.
# CE, the cell colony formation rate, was calculated using Eq. 1 according to the Poisson distribution equation. EW was the number of wells without colonies, and TW was the total number of wells. N was the average number of cells per well (N = 1.6). 1 CE=−lnEW/TW/N
# Additionally, CE was adjusted by the following calculation (Eq. 2) due to cell loss when exposure caused cytotoxicity. “The number of cells at the end of the treatment” was the number of cells obtained after centrifugation at the end of the treatment in the above-described exposure treatment of the test substance. The “cell number at the start of treatment” was 2 × 10^7. 2 AdjustedCE=CE×number of cellsatendof treatment/number of cellsatthe start of treatment
# CE0 seeding, in which cells were seeded immediately after treatment, and CE3 seeding, in which cells were seeded 3 days after treatment, to examine cell viability in the TK6 assay described below. The relative cell viability RS0 (%) just after the treatment with the test substance was calculated from CE0, following Eq. 3. The survival rate of the negative control group was defined as 100%. 3 RS0%=adjusted CE0 of treatment culture/adjusted CE0 of solvent control×100
# The TK6 assay is conducted between 20 and 10% RS0 as a maximum dose if cytotoxicity is observed. […] When the main TK6 assay was difficult to conduct under the condition of RS0 values from 20 to 10%, the test was conducted between 20 and 10% relative total growth (RTG), described later, as a maximum dose.
# Besides RS0, relative suspension growth (RSG) and RTG as other cytotoxicity indices (Eq. 4) were used. When cells were cultured for 3 days after treatment with the test substance, suspension cell growth ratio 1 (SG1) was the growth ratio from day 0 to day 1 (cell concentration on day 1/cell concentration on day 0). The suspension cell growth ratio 2 (SG2) was the growth ratio from day 1 to day 2 (cell concentration on day 2/cell concentration on day 1). The RSG value was calculated by dividing the total SG value of the untreated group for 3 days by the total SG value of the treated group for the same 3 days (Eq. 4).
# On the third day of culture, CE3 plates for determining plating efficiency and mutant frequency (MF) plates for mutation detection were prepared. CE3 plates were seeded in 96-well microplates at a concentration of about 1.6 cells/well.
# [2] = TK6, 24 h treatment, -S9 mix, dose 60.00 μg/mL
# [3] = TK6, 24 h treatment, -S9 mix, dose 90.00 μg/mL
# [4] = TK6, 24 h treatment, -S9 mix, dose 200.0 μg/mL
# [5] = TK6, 24 h treatment, -S9 mix, dose 220.0 μg/mL
# [6] = short treatment, +S9 mix, dose 62.5 μg/mL
# [7] = short treatment, +S9 mix, dose 250 μg/mL
# [8] = short treatment, +S9 mix, dose 500 μg/mL
# [9] = short treatment, +S9 mix, dose 1000 μg/mL
# [10] = short treatment, +S9 mix, dose 2000 μg/mL
# [11] = short treatment, -S9 mix, dose 62.50 μg/mL
# [12] = short treatment, -S9 mix, dose 500.0 μg/mL
# [13] = short treatment, -S9 mix, dose 1000.0 μg/mL
# [14] = short treatment, -S9 mix, dose 2000.0 μg/mL
# [15] = short treatment, +S9 mix, Day 0, dose 62.5 μg/mL
# [16] = short treatment, +S9 mix, Day 0, dose 250 μg/mL
# [17] = short treatment, +S9 mix, Day 0, dose 500 μg/mL
# [18] = short treatment, +S9 mix, Day 0, dose 1000 μg/mL
# [19] = short treatment, +S9 mix, Day 0, dose 2000 μg/mL
# [20] = short treatment, -S9 mix, Day 0, dose 62.50 μg/mL
# [21] = short treatment, -S9 mix, Day 0, dose 500.0 μg/mL
# [22] = short treatment, -S9 mix, Day 0, dose 1000.0 μg/mL
# [23] = short treatment, -S9 mix, Day 0, dose 2000.0 μg/mL
smiles,measurement,setting,value
O=[N+]([O-])c1cc(N(CCO)CCO)ccc1NCCO [HC blue no2],%SG,[1]; [2],47.5%
same,Mut. freq. N-MF,[1]; [2],1.5 ×10-6
same,Mut. freq. S-MF,[1]; [2],1.4 ×10-6
same,Mut. freq. T-MF,[1]; [2],2.9 ×10-6
same,%SG,[1]; [3],74.7%
same,Mut. freq. N-MF,[1]; [3],0.528 ×10-6
same,Mut. freq. S-MF,[1]; [3],1.6 ×10-6
same,Mut. freq. T-MF,[1]; [3],2.1 ×10-6
same,%SG,[1]; [4],48.2%
same,Mut. freq. N-MF,[1]; [4],3.7 ×10-6
same,Mut. freq. S-MF,[1]; [4],3.4 ×10-6
same,Mut. freq. T-MF,[1]; [4],7.1 ×10-6
same,%SG,[1]; [5],52.5%
same,Mut. freq. N-MF,[1]; [5],5.1 ×10-6
same,Mut. freq. S-MF,[1]; [5],5.7 ×10-6
same,Mut. freq. T-MF,[1]; [5],10.8 ×10-6
same,MF,"[1]; -S9 mix, dose 60.00 μg/mL",2.9
same,MF,"[1]; -S9 mix, dose 90.00 μg/mL",2.1
same,MF,"[1]; -S9 mix, dose 200.0 μg/mL",7.1
same,MF,"[1]; -S9 mix, dose 220.0 μg/mL",10.8
same,%SG,[1]; [6],50.7%
same,Mut. freq. N-MF,[1]; [6],0.7 ×10-6
same,Mut. freq. S-MF,[1]; [6],0.7 ×10-6
same,Mut. freq. T-MF,[1]; [6],1.5 ×10-6
same,%SG,[1]; [7],22.9%
same,Mut. freq. N-MF,[1]; [7],2.4 ×10-6
same,Mut. freq. S-MF,[1]; [7],0.7 ×10-6
same,Mut. freq. T-MF,[1]; [7],3.0 ×10-6
same,%SG,[1]; [8],42.4%
same,Mut. freq. N-MF,[1]; [8],1.9 ×10-6
same,Mut. freq. S-MF,[1]; [8],1.4 ×10-6
same,Mut. freq. T-MF,[1]; [8],3.3 ×10-6
same,%SG,[1]; [9],28.4%
same,Mut. freq. N-MF,[1]; [9],2.8 ×10-6
same,Mut. freq. S-MF,[1]; [9],1.1 ×10-6
same,Mut. freq. T-MF,[1]; [9],3.9 ×10-6
same,%SG,[1]; [10],48.7%
same,Mut. freq. N-MF,[1]; [10],1.3 ×10-6
same,Mut. freq. S-MF,[1]; [10],1.2 ×10-6
same,Mut. freq. T-MF,[1]; [10],2.5 ×10-6
same,%SG,[1]; [11],23.1%
same,Mut. freq. N-MF,[1]; [11],1.5 ×10-6
same,Mut. freq. S-MF,[1]; [11],0.455 ×10-6
same,Mut. freq. T-MF,[1]; [11],2.0 ×10-6
same,%SG,[1]; [12],55.5%
same,Mut. freq. N-MF,[1]; [12],1.8 ×10-6
same,Mut. freq. S-MF,[1]; [12],2.3 ×10-6
same,Mut. freq. T-MF,[1]; [12],4.1 ×10-6
same,%SG,[1]; [13],26.3%
same,Mut. freq. N-MF,[1]; [13],2.3 ×10-6
same,Mut. freq. S-MF,[1]; [13],0.8 ×10-6
same,Mut. freq. T-MF,[1]; [13],3.1 ×10-6
same,%SG,[1]; [14],51.7%
same,Mut. freq. N-MF,[1]; [14],1.8 ×10-6
same,Mut. freq. S-MF,[1]; [14],1.9 ×10-6
same,Mut. freq. T-MF,[1]; [14],3.7 ×10-6
same,Adjusted CE0,TK6 cells; [2],341.6%
same,CE0 (cell viability on Day 0),TK6 cells; [2],112.0%
same,CE3 (cell viability on Day 3),TK6 cells; [2],116.0%
same,RS0,TK6 cells; [2],128.6%
same,RSG,TK6 cells; [2],0.865
same,Adjusted CE0,TK6 cells; [3],259.2%
same,CE0 (cell viability on Day 0),TK6 cells; [3],81.6%
same,CE3 (cell viability on Day 3),TK6 cells; [3],125.0%
same,RS0,TK6 cells; [3],97.6%
same,RSG,TK6 cells; [3],0.765
same,Adjusted CE0,TK6 cells; [4],96.6%
same,CE0 (cell viability on Day 0),TK6 cells; [4],50.2%
same,CE3 (cell viability on Day 3),TK6 cells; [4],112.0%
same,RS0,TK6 cells; [4],36.4%
same,RSG,TK6 cells; [4],0.241
same,Adjusted CE0,TK6 cells; [5],48.2%
same,CE0 (cell viability on Day 0),TK6 cells; [5],28.3%
same,CE3 (cell viability on Day 3),TK6 cells; [5],101.2%
same,RS0,TK6 cells; [5],18.1%
same,RSG,TK6 cells; [5],0.106
same,CE3,"TK6 cells; as fraction, mutation frequency table, TK6, 24 h treatment, -S9 mix, dose 60.00 μg/mL",1.160
same,CE3,"TK6 cells; as fraction, mutation frequency table, TK6, 24 h treatment, -S9 mix, dose 90.00 μg/mL",1.250
same,CE3,"TK6 cells; as fraction, mutation frequency table, TK6, 24 h treatment, -S9 mix, dose 200.0 μg/mL",1.120
same,CE3,"TK6 cells; as fraction, mutation frequency table, TK6, 24 h treatment, -S9 mix, dose 220.0 μg/mL",1.012
same,RS,"TK6 cells; -S9 mix, dose 60.00 μg/mL",128.6
same,RS,"TK6 cells; -S9 mix, dose 90.00 μg/mL",97.6
same,RS,"TK6 cells; -S9 mix, dose 200.0 μg/mL",36.4
same,RS,"TK6 cells; -S9 mix, dose 220.0 μg/mL",18.1
same,Adjusted CE0,TK6 cells; [15],91.4%
same,CE0,TK6 cells; [15],81.6%
same,RS0,TK6 cells; [15],96.7%
same,Adjusted CE0,TK6 cells; [16],89.0%
same,CE0,TK6 cells; [16],74.8%
same,RS0,TK6 cells; [16],94.2%
same,Adjusted CE0,TK6 cells; [17],80.9%
same,CE0,TK6 cells; [17],79.3%
same,RS0,TK6 cells; [17],85.5%
same,Adjusted CE0,TK6 cells; [18],69.1%
same,CE0,TK6 cells; [18],59.6%
same,RS0,TK6 cells; [18],73.1%
same,Adjusted CE0,TK6 cells; [19],58.5%
same,CE0,TK6 cells; [19],54.7%
same,RS0,TK6 cells; [19],61.9%
same,CE3,"TK6 cells; short treatment, +S9 mix, Day 3, dose 62.5 μg/mL",92.1%
same,CE3,"TK6 cells; short treatment, +S9 mix, Day 3, dose 250 μg/mL",104.6%
same,CE3,"TK6 cells; short treatment, +S9 mix, Day 3, dose 500 μg/mL",92.1%
same,CE3,"TK6 cells; short treatment, +S9 mix, Day 3, dose 1000 μg/mL",108.2%
same,CE3,"TK6 cells; short treatment, +S9 mix, Day 3, dose 2000 μg/mL",104.6%
same,CE3,"TK6 cells; short treatment, +S9 mix, as fraction, dose 62.5 μg/mL",0.921
same,CE3,"TK6 cells; short treatment, +S9 mix, as fraction, dose 250 μg/mL",1.046
same,CE3,"TK6 cells; short treatment, +S9 mix, as fraction, dose 500 μg/mL",0.921
same,CE3,"TK6 cells; short treatment, +S9 mix, as fraction, dose 1000 μg/mL",1.082
same,CE3,"TK6 cells; short treatment, +S9 mix, as fraction, dose 2000 μg/mL",1.046
same,RSG,TK6 cells; [6],1.016
same,RSG,TK6 cells; [7],1.004
same,RSG,TK6 cells; [8],1.149
same,RSG,TK6 cells; [9],0.770
same,RSG,TK6 cells; [10],0.963
same,Adjusted CE0,TK6 cells; [20],82.4%
same,CE0,TK6 cells; [20],77.0%
same,RS0,TK6 cells; [20],94.7%
same,Adjusted CE0,TK6 cells; [21],97.6%
same,CE0,TK6 cells; [21],92.1%
same,RS0,TK6 cells; [21],112.2%
same,Adjusted CE0,TK6 cells; [22],99.4%
same,CE0,TK6 cells; [22],92.1%
same,RS0,TK6 cells; [22],114.3%
same,Adjusted CE0,TK6 cells; [23],93.9%
same,CE0,TK6 cells; [23],92.1%
same,RS0,TK6 cells; [23],107.9%
same,CE3,"TK6 cells; short treatment, -S9 mix, Day 3, dose 62.50 μg/mL",125.0%
same,CE3,"TK6 cells; short treatment, -S9 mix, Day 3, dose 500.0 μg/mL",95.0%
same,CE3,"TK6 cells; short treatment, -S9 mix, Day 3, dose 1000.0 μg/mL",108.2%
same,CE3,"TK6 cells; short treatment, -S9 mix, Day 3, dose 2000.0 μg/mL",89.3%
same,CE3,"TK6 cells; short treatment, -S9 mix, as fraction, dose 62.50 μg/mL",1.250
same,CE3,"TK6 cells; short treatment, -S9 mix, as fraction, dose 500.0 μg/mL",0.950
same,CE3,"TK6 cells; short treatment, -S9 mix, as fraction, dose 1000.0 μg/mL",1.082
same,CE3,"TK6 cells; short treatment, -S9 mix, as fraction, dose 2000.0 μg/mL",0.893
same,RSG,TK6 cells; [11],0.906
same,RSG,TK6 cells; [12],1.168
same,RSG,TK6 cells; [13],0.743
same,RSG,TK6 cells; [14],0.681
